Results: ChEMBL document CHEMBL1201862, “PubChem BioAssay data set” (2004)
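Compound exposure: 48 hours, 5 concentrations, 96-well plates. GI50 = concentration required for 50% inhibition of growth.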 Activity calls are given as the source filed them. Cut-off read from the data, not from the text of the source: active = GI50 up to about 1.1 µM and inactive = higher.

Experiments:
Test in all cases: inhibition of tumour cell growth, NCI panel, 48 h
U-251 = system: U-251
SR = system: SR
OVCAR-5 = system: OVCAR-5
HCT-116 = system: HCT-116
UACC-257 = system: UACC-257
HL-60 = system: HL-60
SNB-75 = system: SNB-75
HOP-62 = system: HOP-62
HCT-15 = system: HCT-15
SK-MEL-5 = system: SK-MEL-5
SN12C = system: SN12C
SK-MEL-2 = system: SK-MEL-2
LXFL 529 = system: LXFL 529
HT-29 = system: HT-29
NCI-H522 = system: NCI-H522
CAKI-1 = system: CAKI-1
SF-295 = system: SF-295
786-0 = system: 786-0
OVCAR-8 = system: OVCAR-8
OVCAR-3 = system: OVCAR-3
ACHN = system: ACHN
Malme-3M = system: Malme-3M
UO-31 = system: UO-31
LOX IMVI = system: LOX IMVI
RPMI-8226 = system: RPMI-8226
SW-620 = system: SW-620
OVCAR-4 = system: OVCAR-4
SF-539 = system: SF-539
KM12 = system: KM12
A549 = system: A549
K562 = system: K562
NCI-H460 = system: NCI-H460
XF498 = system: XF498
SF-268 = system: SF-268
UACC-62 = system: UACC-62
M14 = system: M14
SNB-19 = system: SNB-19
KM-20L2 = system: KM-20L2
DMS-273 = system: DMS-273
EKVX = system: EKVX
DMS-114 = system: DMS-114
MOLT-4 = system: MOLT-4
M19-MEL = system: M19-MEL
SK-OV-3 = system: SK-OV-3
IGROV-1 = system: IGROV-1
NCI-H226 = system: NCI-H226
A498 = system: A498
HCC 2998 = system: HCC 2998
SK-MEL-28 = system: SK-MEL-28
DLD-1 = system: DLD-1
NCI-H23 = system: NCI-H23
COLO 205 = system: COLO 205
HOP-18 = system: HOP-18
RXF 393 = system: RXF 393
HOP-92 = system: HOP-92
CCRF-CEM = system: CCRF-CEM
TK-10 = system: TK-10

N#CCCN(CCC#N)c1ccc(/C=C2\N=C(c3cc([N+](=O)[O-])ccc3Cl)OC2=O)cc1
GI50 (U-251): 17.6 µM (inactive)
GI50 (SR): 33.3 µM (inactive)
GI50 (OVCAR-5): > 100 µM (inactive)
GI50 (HCT-116): > 100 µM (inactive)
GI50 (UACC-257): 20 µM (inactive)
GI50 (HL-60): 38.1 µM (inactive)
GI50 (SNB-75): 23.9 µM (inactive)
GI50 (HOP-62): 35.4 µM (inactive)
GI50 (HCT-15): 53.2 µM
GI50 (SK-MEL-5): 16 µM (inactive)
GI50 (SN12C): 19.9 µM (inactive)
GI50 (SK-MEL-2): 20 µM (inactive)
GI50 (LXFL 529): 18.1 µM (inactive)
GI50 (HT-29): > 100 µM (inactive)
GI50 (NCI-H522): 14 µM (inactive)
GI50 (CAKI-1): > 100 µM (inactive)
GI50 (SF-295): 44.5 µM (inactive)
GI50 (786-0): 34.4 µM (inactive)
GI50 (OVCAR-8): 19.1 µM (inactive)
GI50 (OVCAR-3): 27.8 µM (inactive)
GI50 (ACHN): > 100 µM (inactive)
GI50 (Malme-3M): > 100 µM (inactive)
GI50 (UO-31): > 100 µM (inactive)
GI50 (LOX IMVI): 23.7 µM (inactive)
GI50 (RPMI-8226): 88.7 µM (inactive)
GI50 (SW-620): 68.4 µM (inactive)
GI50 (OVCAR-4): 30 µM (inactive)
GI50 (SF-539): 40.3 µM (inactive)
GI50 (KM12): 14.7 µM (inactive)
GI50 (A549): > 100 µM (inactive)
GI50 (K562): 18.2 µM (inactive)
GI50 (NCI-H460): 67.5 µM (inactive)
GI50 (XF498): 35.4 µM (inactive)
GI50 (SF-268): 45.1 µM (inactive)
GI50 (UACC-62): 62.4 µM (inactive)
GI50 (M14): 35.6 µM (inactive)
GI50 (SNB-19): 25.9 µM (inactive)
GI50 (KM-20L2): > 100 µM (inactive)
GI50 (DMS-273): > 100 µM (inactive)
GI50 (EKVX): > 100 µM (inactive)
GI50 (DMS-114): 25.4 µM (inactive)
GI50 (MOLT-4): 24.2 µM (inactive)
GI50 (M19-MEL): 20.5 µM (inactive)
GI50 (SK-OV-3): > 100 µM (inactive)
GI50 (IGROV-1): > 100 µM (inactive)
GI50 (NCI-H226): 22.4 µM (inactive)
GI50 (A498): > 100 µM (inactive)
GI50 (HCC 2998): 21.6 µM (inactive)
GI50 (SK-MEL-28): 52.6 µM (inactive)

NC(=S)N/N=C/c1nccc2ccccc12
GI50 (U-251): 0.296 µM (active)
GI50 (DLD-1): 1.12 µM (active)
GI50 (SR): 0.664 µM (active)
GI50 (OVCAR-5): 0.685 µM (active)
GI50 (HCT-116): 0.914 µM (active)
GI50 (HL-60): 0.393 µM (active)
GI50 (SNB-75): 0.578 µM (active)
GI50 (HOP-62): 0.619 µM (active)
GI50 (HCT-15): 0.975 µM
GI50 (SK-MEL-5): 0.467 µM (active)
GI50 (SN12C): 0.682 µM (active)
GI50 (SK-MEL-2): 2.7 µM (inactive)
GI50 (LXFL 529): 1.96 µM (inactive)
GI50 (HT-29): 0.731 µM (active)
GI50 (NCI-H522): 0.719 µM (active)
GI50 (CAKI-1): 0.738 µM (active)
GI50 (SF-295): 0.168 µM (active)
GI50 (786-0): 0.2 µM (active)
GI50 (OVCAR-8): 0.313 µM (active)
GI50 (OVCAR-3): 0.307 µM (active)
GI50 (ACHN): 0.0254 µM (active)
GI50 (Malme-3M): 0.0337 µM (active)
GI50 (UO-31): 0.443 µM (active)
GI50 (LOX IMVI): 0.322 µM (active)
GI50 (RPMI-8226): 1.22 µM (inactive)
GI50 (SW-620): 0.802 µM (active)
GI50 (OVCAR-4): 0.54 µM (active)
GI50 (SF-539): 0.223 µM (active)
GI50 (KM12): 0.873 µM (active)
GI50 (A549): 0.409 µM (active)
GI50 (K562): 2.73 µM (inactive)
GI50 (NCI-H460): 0.415 µM (active)
GI50 (NCI-H23): 0.459 µM (active)
GI50 (SF-268): 0.377 µM (active)
GI50 (COLO 205): 0.957 µM (active)
GI50 (HOP-18): 1.21 µM (inactive)
GI50 (UACC-62): 0.281 µM (active)
GI50 (M14): 0.482 µM (active)
GI50 (SNB-19): 0.948 µM (active)
GI50 (KM-20L2): 0.375 µM (active)
GI50 (DMS-273): 0.272 µM (active)
GI50 (DMS-114): 0.361 µM (active)
GI50 (MOLT-4): 0.461 µM (active)
GI50 (M19-MEL): 0.918 µM (active)
GI50 (RXF 393): 0.257 µM (active)
GI50 (HOP-92): 2.74 µM (inactive)
GI50 (SK-OV-3): 0.594 µM (active)
GI50 (CCRF-CEM): 0.453 µM (active)
GI50 (IGROV-1): 0.762 µM (active)
GI50 (A498): 0.515 µM (active)
GI50 (HCC 2998): 0.664 µM (active)
GI50 (TK-10): 4.93 µM (inactive)
GI50 (SK-MEL-28): 2.37 µM (inactive)
